Values quoted from earlier work in US6864048B2, “Factorial chemical libraries” (Affymetrix, Inc., priority 1993, dated 2005).

Target: antibody
Conditions: binding to the antibody; peptide identified by recursive retrosynthesis of a hexapeptide library

Kd: 0.03 µM
Substance: DVPYDA
